Experimental data: patent US4766133A, “(Bezimidazol-2-yl)-pyridinium compounds” (priority 1985, dated 1988)
Read-outs that look alike come from different tables or passages of the source.

Experiments:
[1] = acute toxicity (single oral administration to mice); conditions: mouse, in vivo, read-out: Toxicity, LD 50
Text: In the following Table there are given for a series of representative compounds of formula I the results of the testing with respect to their anti-ulcer activity and to their gastric secretion-inhibiting activity. Moreover, this Table contains data concerning the acute toxicity (LD50 in the case of single oral administration to mice).

[2] = system: indomethacin-induced lesions of the stomach; assay: anti-ulcer activity (indomethacin-induced lesions of the stomach); format: in vivo; conditions: Rattus norvegicus, po, read-out: Anti-ulcer, ED50
Method: The experimental procedure described hereinafter was used to determine the anti-ulcer activity:
Groups each comprising 8 male rats with a body weight of 130-150 g are used for each dosage of a test substance. Before the beginning of the experiment the animals receive no food for 24 hours, but receive water ad libitum. Various dosages of the substances to be tested (suspended in 0.5% tragacanth) or the vehicle alone (controls) are administered twice perorally, namely 1 hour before and 2 hours after the peroral administration of 20 mg/kg of indomethacin. […] The animals are killed 6 hours after the first administration of the substanoe under investigation (or of the vehicle alone). The rats which remain protected from the occurrence of macroscopically visible lesions to the mucous membrane of the stomach are counted.

[3] = system: gastric acid secretion stimulated by 4-methylhistamine; assay: gastric acid secretion-inhibiting activity (Heidenhain type pouch, 4-methylhistamine stimulated); format: in vivo, beagle hounds (dog); conditions: Canis lupus familiaris, read-out: Gastric acid secretion-inhibition, ED50
Method: The experimental procedure described hereinafter was used to determine the gastric acid secretion-inhibiting activity:
In the pouch there is fitted a steel cannula which is conducted externally through the abdominal wall. Before each experiment the animals receive no food for 18 hours, but receive water ad libitum. They are conscious and standing during the experiment and their gastric acid secretion is stimulated by the intravenous infusion of 4-methylhistamine, a selective agonist of the histamine H2 -receptors. The gastric acid production is determined in 15 minute fractions of the stomach pouch juioe. As soon as the gastric acid production has a constant value, the substances to be tested are administered orally as a dry powder filled into gelatine capsules.

[4] = male rats, p.o. twice, 1 h before and 2 h after 20 mg/kg indomethacin p.o., 50% of animals protected from lesions
[5] = conscious beagle hounds, Heidenhain type pouch, 4-methylhistamine i.v. infusion, oral dry powder in gelatine capsules, 50% inhibition

| Compound | LD50 [1] [mg/kg] | ED50 [2, 4] [mg/kg] | ED50 [3, 5] [mg/kg] | ED50 [2] [mg/kg] | ED50 ([3]; po) [mg/kg] |
| --- | --- | --- | --- | --- | --- |
| COc1cc[n+](-c2nc3cc4c(cc3[nH]2)C(C)(C)C(=O)C4(C)C)c(CSSC2CCCC2)c1C.[Cl-] [Q, 2-[(Cyclopentyldithio)methyl]-4-methoxy-3-methyl-1-(1,5,6,7-tetrahydro-5,5,7,7-tetramethyl-6-oxoindeno[5,6-d]imidazol-2-yl)pyridinium chloride] | 312 to 625 | 1.6 | 4.9 | – | – |
| CCSSCc1c(C)c(OC)cc[n+]1-c1nc2ccc(C(F)(F)F)cc2[nH]1.[Cl-] [F, 2-[(Ethyldithio)methyl]-4-methoxy-3-methyl-1-[5-(trifluoromethyl)-2-benzimidazolyl]pyridinium chloride] | 1250 to 2500 | 1.7 | 1.6 | – | – |
| CCSSCc1c(C)c(OC)cc[n+]1-c1nc2cc3c(cc2[nH]1)C(C)(C)C(=O)C3(C)C.[Cl-] [K, 2-[(Ethyldithio)methyl]-4-methoxy-3-methyl-1-(1,5,6,7-tetrahydro-5,5,7,7-tetramethyl-6-oxoindeno[5,6-d]-imidazol-2-yl)pyridinium chloride] | 312 to 625 | 2.3 | 6.5 | – | – |
| COc1cc[n+](-c2nc3cc4c(cc3[n-]2)C(C)(C)C(=O)C4(C)C)c(CSSCCN(C)C)c1C [N] | – | – | – | 1.5 | 3.7 |
| CCCSSCc1c(C)c(OC)cc[n+]1-c1nc2ccc(C(F)(F)F)cc2[nH]1.[Cl-] [A, 2-[(propyldithio)methyl]-4-methoxy-3-methyl-1-[5-(trifluoromethyl)-2-benzimidazolyl]pyridinium chloride] | > 5000 | 1.2 | 1.5 | – | – |
| CCCSSCc1c(C)c(OC)cc[n+]1-c1nc2cc3c(cc2[nH]1)C(C)(C)C(=O)C3(C)C.[Cl-] [L, 4-Methoxy-3-methyl-2-[(propyldithio)methyl]-1-(1,5,6,7-tetrahydro-5,5,7,7-tetramethyl-6-oxoindeno[5,6-d]-imidazol-2-yl)pyridinium chloride] | 312 to 625 | 1.6 | 3.4 | – | – |
| COc1cc[n+](-c2nc3cc4c(cc3[nH]2)C(C)(C)C(=O)C4(C)C)c(CSSCCO)c1C.[Cl-] [O, 2-[[(2-Hydroxyethyl)dithio]methyl]-4-methoxy-3-methyl-1-(1,5,6,7-tetrahydro-5,5,7,7-tetramethyl-6-oxoindeno[5,6-d]imidazol-2-yl)pyridinium chloride] | 312 to 625 | 2.3 | 2.9 | – | – |
| CCOC(=O)[C@@H](N)CSSCc1c(C)c(OC)cc[n+]1-c1nc2cc3c(cc2[nH]1)C(C)(C)C(=O)C3(C)C.[Cl-] [M, 2-[[[(R)-2-Amino-2-(ethoxycarbonyl)ethyl]dithio]methyl]-4-methoxy-3-methyl-1-(1,5,6,7-tetrahydro-5,5,7,7-tetramethyl-6-oxoindeno[5,6-d]imidazol-2-yl)pyridinium chloride] | 312 to 625 | 1.6 | 4.6 | – | – |
| COc1cc[n+](-c2nc3cc4c(cc3[nH]2)C(C)(C)C(=O)C4(C)C)c(CSSc2cccc(Cl)c2)c1C [H, 2-[[(m-Chlorophenyl)dithio]methyl]-4-methoxy-3-methyl-1-(1,5,6,7-tetrahydro-5,5,7,7-tetramethyl-6-oxoindeno[5,6d]imidazol-2-yl)pyridinium chloride] | 1250 to 2500 | 1.8 | 6.2 | – | – |
| COc1cc[n+](-c2nc3cc4c(cc3[nH]2)C(C)(C)C(=O)C4(C)C)c(CSSC[C@H](N)C(=O)O)c1C.[Cl-] [I, 2-[[[(R)-2-Amino-2-carboxyethyl]dithio]methyl]-4-methoxy-3-methyl-1-(1,5,6,7-tetrahydro-5,5,7,7-tetramethyl-6-oxoindeno[5,6-d]imidazol-2-yl)pyridinium chloride] | 312 to 625 | 2.3 | 3.9 | – | – |
| COc1cc[n+](-c2nc3cc(C(F)(F)F)ccc3[nH]2)c(CSSCCN)c1C [G, 2-[[(2-Aminoethyl)dithio]methyl]-4-methoxy-3-methyl-b 1-[5-(trifluoromethyl)-2-benzimidazolyl]pyridinium chloride] | 312 to 625 | 2.3 | 1.5 | – | – |
| CCOC(=O)CC(SSCc1c(C)c(OC)cc[n+]1-c1nc2ccc(C(F)(F)F)cc2[nH]1)C(=O)OCC.[Cl-] (centres unmarked) [J, 2-[[[1,2-Bis-(ethoxycarbonyl)ethyl]dithio]methyl]-4-methoxy-3-methyl-1-[5-(trifluoromethyl)-2-benzimidazolyl]pyridinium chloride] | 1250 to 2500 | 2.4 | 2.2 | – | – |
| COc1cc[n+](-c2nc3ccc(C(F)(F)F)cc3[nH]2)c(CSSC[C@H](N)C(=O)O)c1C.[Cl-] [B, 2-[[[(R)-2-Amino-2-carboxyethyl]dithio]methyl]-4-methoxy-3-methyl-1-[5-(trifluoromethyl)-2-benzimidazolyl]pyridinium chloride] | 1250 to 2500 | 2.5 | 2.8 | – | – |
| CCCCCCSSCc1c(C)c(OC)cc[n+]1-c1nc2ccc(C(F)(F)F)cc2[nH]1.[Cl-] [D, 2-[(Hexyldithio)methyl]-4-methoxy-3-methyl-1-[5-(trifluoromethyl) -2-benzimidazolyl]pyridinium chloride] | > 5000 | 1.9 | 6.8 | – | – |
| COc1cc[n+](-c2nc3cc4c(cc3[nH]2)C(C)(C)C(=O)C4(C)C)c(CSSCCC(N)C(=O)O)c1C.[Cl-] (racemic) [P, 2-[[[(RS)-3-Amino-3-carboxypropyl]dithio]methyl]-4-methoxy-3-methyl-1-(1,5,6,7-tetrahydro-5,5,7,7-tetramethyl-6-oxoindeno[5,6-d]imidazol-2-yl)pyridinium chloride] | 312 to 625 | 1.9 | 4.1 | – | – |
| COc1cc[n+](-c2nc3cc(C(F)(F)F)ccc3[nH]2)c(CSSC[C@H](NC(=O)CC[C@H](N)C(=O)O)C(=O)NCC(=O)O)c1C [C, 2-[[[(R)-2-[(S)-4-Amino-4-carboxybutyramido]-2-[(carboxymethyl)carbamoyl]ethyl]dithio]methyl]-4-methoxy-3-methyl-1-[(5-trifluoromethyl)-2-benzimidazolyl]pyridinium chloride] | 1250 to 2500 | 3 | 3 | – | – |
| COc1cc[n+](-c2nc3ccc(C(F)(F)F)cc3[nH]2)c(CSSc2ccccc2Cl)c1C.[Cl-] [E, 2-[[(o-Chlorophenyl)dithio]methyl]-4-methoxy-3-methyl-1-[5-(trifluoromethyl)-2-benzimidazolyl]pyridinium chloride] | > 5000 | 2.1 | 6 | – | – |
